# Experimental data reported in ChEMBL document CHEMBL5050844 (2019).
# Key:
# [1] = target: T1, E3 ubiquitin-protein ligase CBL-B (Homo sapiens, UniProt Q13191); experiment: Binding affinity towards N-terminal biotinylated Avi-tagged human CBL-B (36 to 427 residues) measured by surface plasmon resonance assay
# [2] = target: T1, E3 ubiquitin-protein ligase CBL-B; experiment: Inhibition of N-terminal Avi-tagged human CBL-B (36 to 427 residues) incubated with 30 nM Src kinase for 1.5 hrs followed by incubation with fluorescently labeled UbcH5B-Ub for 1 hr and measured by TR-FRET assay
# [3] = Induction of anti-CD3/CD28 antibodies-stimulated human T cell activation at 4 uM assessed fold increase in CD25 expression measured by ELISA assay; type: functional, T cell line
# [4] = Induction of activation of human CD56+ CD3- NK cells co-cultured with human K562 cells in 5:1 ratio and assessed as increase in MIP1beta secretion at 1 uM measured by ELISA assay; type: functional, Natural killer cell
# [5] = Induction of anti-CD3 antibodies-stimulated human T cell activation at 8 uM assessed fold increase in IL-2 secretion measured by ELISA assay; type: functional, T cell line; also: reference of the scale not given here
# [6] = Induction of activation of human CD56+ CD3- NK cells co-cultured with human K562 cells in 5:1 ratio and assessed as increase in TNF-alpha secretion at 1 uM measured by ELISA assay; type: functional, Natural killer cell
# [7] = Induction of activation of human CD56+ CD3- NK cells co-cultured with human K562 cells in 1:1 ratio and assessed as increase in MIP1beta secretion at 1 uM measured by ELISA assay; type: functional, Natural killer cell
# [8] = Induction of anti-CD3/CD28 antibodies-stimulated human T cell activation at 0.3 uM assessed fold increase in CD25 expression measured by ELISA assay; type: functional, T cell line
# [9] = Induction of anti-CD3/CD28 antibodies-stimulated human T cell activation at 0.3 uM assessed fold increase in IL-2 secretion measured by ELISA assay; type: functional, T cell line
# [10] = Induction of activation of human CD56+ CD3- NK cells co-cultured with human K562 cells in 5:1 ratio and assessed as increase in MIP1beta secretion at 10 uM measured by ELISA assay; type: functional, Natural killer cell
# [11] = Induction of activation of human CD56+ CD3- NK cells co-cultured with human K562 cells in 5:1 ratio and assessed as increase in TNF-alpha secretion at 10 uM measured by ELISA assay; type: functional, Natural killer cell
# [12] = Induction of activation of human CD56+ CD3- NK cells co-cultured with human K562 cells in 1:1 ratio and assessed as increase in TNF-alpha secretion at 1 uM measured by ELISA assay; type: functional, Natural killer cell
# [13] = Induction of anti-CD3 antibodies-stimulated human T cell activation at 1 uM assessed fold increase in IL-2 secretion measured by ELISA assay; type: functional, T cell line; also: reference of the scale not given here
# [14] = Induction of activation of human CD56+ CD3- NK cells co-cultured with human K562 cells in 1:1 ratio and assessed as increase in IFN-gamma secretion at 1 uM measured by ELISA assay; type: functional, Natural killer cell
# [15] = Induction of anti-CD3 antibodies-stimulated human T cell activation at 1 uM assessed fold increase in CD25 expression measured by ELISA assay; type: functional, T cell line; also: reference of the scale not given here
# [16] = Induction of anti-CD3/CD28 antibodies-stimulated human T cell activation at 1 uM assessed fold increase in CD25 expression measured by ELISA assay; type: functional, T cell line
# [17] = Induction of activation of human CD56+ CD3- NK cells co-cultured with human K562 cells in 1:1 ratio and assessed as increase in IFN-gamma secretion at 10 uM measured by ELISA assay; type: functional, Natural killer cell
# [18] = Induction of activation of human CD56+ CD3- NK cells co-cultured with human K562 cells in 1:1 ratio and assessed as increase in MIP1beta secretion at 10 uM measured by ELISA assay; type: functional, Natural killer cell
# [19] = Induction of anti-CD3/CD28 antibodies-stimulated human T cell activation at 4 uM assessed fold increase in IL-2 secretion measured by ELISA assay; type: functional, T cell line
# [20] = Induction of activation of human CD56+ CD3- NK cells co-cultured with human K562 cells in 1:1 ratio and assessed as increase in TNF-alpha secretion at 10 uM measured by ELISA assay; type: functional, Natural killer cell
# [21] = Induction of anti-CD3/CD28 antibodies-stimulated human T cell activation at 1 uM assessed fold increase in IL-2 secretion measured by ELISA assay; type: functional, T cell line
# [22] = Induction of activation of human CD56+ CD3- NK cells co-cultured with human K562 cells in 5:1 ratio and assessed as increase in IFN-gamma secretion at 10 uM measured by ELISA assay; type: functional, Natural killer cell
# [23] = Induction of anti-CD3 antibodies-stimulated human T cell activation at 8 uM assessed fold increase in CD25 expression measured by ELISA assay; type: functional, T cell line; also: reference of the scale not given here
# [24] = Induction of activation of human CD56+ CD3- NK cells co-cultured with human K562 cells in 5:1 ratio and assessed as increase in IFN-gamma secretion at 1 uM measured by ELISA assay; type: functional, Natural killer cell
# [25] = Induction of anti-CD3 antibodies-stimulated human CD8+ T cell activation in immunocompetent mouse assessed fold increase in CD25 expression at 90 mg/kg, ip administered thrice a day; type: functional; also: reference of the scale not given here
# [26] = Induction of anti-CD3 antibodies-stimulated human CD8+ T cell activation in immunocompetent mouse assessed fold increase in CD25 expression at 180 mg/kg, po administered twice a day; type: functional; also: reference of the scale not given here
# [27] = Induction of anti-CD3 antibodies-stimulated human CD4+ T cell activation in immunocompetent mouse assessed fold increase in CD25 expression at 135 mg/kg, po administered twice a day; type: functional; also: reference of the scale not given here
# [28] = Induction of anti-CD3 antibodies-stimulated human CD8+ T cell activation in immunocompetent mouse assessed fold increase in CD25 expression at 135 mg/kg, po administered twice a day; type: functional; also: reference of the scale not given here
# [29] = target: T1, E3 ubiquitin-protein ligase CBL-B; experiment: Inhibition of N-terminal Avi-tagged human CBL-B (36 to 427 residues) incubated with 60 nM Src kinase for 1.5 hrs followed by incubation with fluorescently labeled UbcH5B-Ub for 1 hr and measured by TR-FRET assay; type: single protein
# [30] = Induction of anti-CD3 antibodies-stimulated human CD4+ T cell activation in immunocompetent mouse assessed fold increase in CD25 expression at 180 mg/kg, po administered twice a day; type: functional; also: reference of the scale not given here
# [31] = Induction of anti-CD3 antibodies-stimulated human CD8+ T cell activation in immunocompetent mouse assessed fold increase in CD25 expression at 90 mg/kg, po administered twice a day; type: functional; also: reference of the scale not given here
# [32] = Induction of anti-CD3 antibodies-stimulated human CD4+ T cell activation in immunocompetent mouse assessed fold increase in CD25 expression at 90 mg/kg, po administered twice a day; type: functional; also: reference of the scale not given here
# T1 sequence (Q13191 whole entry, the tested form may be a part): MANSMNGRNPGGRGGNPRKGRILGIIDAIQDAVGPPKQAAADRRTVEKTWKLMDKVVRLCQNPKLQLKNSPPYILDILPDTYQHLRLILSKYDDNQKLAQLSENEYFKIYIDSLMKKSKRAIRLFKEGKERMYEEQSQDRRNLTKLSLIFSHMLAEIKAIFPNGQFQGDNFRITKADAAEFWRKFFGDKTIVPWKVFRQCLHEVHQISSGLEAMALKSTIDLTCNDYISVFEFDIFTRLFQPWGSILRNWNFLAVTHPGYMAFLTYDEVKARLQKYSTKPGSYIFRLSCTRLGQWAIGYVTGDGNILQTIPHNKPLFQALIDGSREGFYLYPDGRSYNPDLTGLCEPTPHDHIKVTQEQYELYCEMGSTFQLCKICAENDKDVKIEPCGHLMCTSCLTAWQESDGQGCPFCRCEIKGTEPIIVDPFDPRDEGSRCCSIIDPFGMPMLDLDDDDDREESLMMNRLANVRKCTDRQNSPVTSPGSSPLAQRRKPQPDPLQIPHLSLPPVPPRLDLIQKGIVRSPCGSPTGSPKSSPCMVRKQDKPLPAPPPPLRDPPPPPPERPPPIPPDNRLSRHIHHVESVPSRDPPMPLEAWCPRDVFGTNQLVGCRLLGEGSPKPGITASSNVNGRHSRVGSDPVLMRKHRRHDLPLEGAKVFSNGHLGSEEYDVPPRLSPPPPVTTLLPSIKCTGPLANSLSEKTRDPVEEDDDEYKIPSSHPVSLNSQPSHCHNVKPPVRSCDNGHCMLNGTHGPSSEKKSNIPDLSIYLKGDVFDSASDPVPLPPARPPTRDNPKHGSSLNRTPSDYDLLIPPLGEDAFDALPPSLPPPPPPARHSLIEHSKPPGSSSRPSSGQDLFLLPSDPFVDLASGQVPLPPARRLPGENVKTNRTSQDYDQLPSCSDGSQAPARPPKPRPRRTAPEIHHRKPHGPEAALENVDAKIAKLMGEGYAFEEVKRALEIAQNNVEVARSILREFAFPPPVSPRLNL
smiles,measurement,setting,value
COc1cccc(C(=O)Nc2cccc(C(C)Sc3nncn3C)c2)c1 (stereo not drawn),Kd,[1],> 10 µM
same,IC50,[2],> 10 µM
Cn1cnnc1C(F)(F)[C@](C)(F)c1cccc(N2Cc3c(cccc3C(F)(F)F)C2=O)c1,fold change (FC),[3],1.01
same,fold change (FC),[4],<=1
same,fold change (FC),[5],>=0.201
same,fold change (FC),[6],<=1
same,fold change (FC),[7],<=1
same,fold change (FC),[8],1.01
same,fold change (FC),[9],1.01
same,fold change (FC),[10],<=1
same,fold change (FC),[11],<=1
same,fold change (FC),[12],<=1
same,fold change (FC),[13],0.151
same,fold change (FC),[14],1.01
same,fold change (FC),[15],0.601
same,fold change (FC),[16],1.01
same,fold change (FC),[17],2.01
same,fold change (FC),[18],<=1
same,fold change (FC),[19],2.51
same,fold change (FC),[20],1.01
same,fold change (FC),[21],1.01
same,fold change (FC),[22],1.01
same,fold change (FC),[23],>=1.001
same,fold change (FC),[24],<=1
CC(Sc1nncn1C)c1cccc(NC(=O)c2ccncn2)c1 (stereo not drawn),IC50,[2],> 10 µM
Cn1cnnc1CC1(c2cccc(N3Cc4c(cc(CN5CC[C@H](F)C5)cc4C(F)(F)F)C3=O)c2)COC1,fold change (FC),[3],1.51
same,fold change (FC),[5],>=0.201
same,fold change (FC),[8],1.31
same,fold change (FC),[25],1
same,fold change (FC),[9],5
same,fold change (FC),[26],1
same,fold change (FC),[13],>=0.201
same,fold change (FC),[27],1
same,fold change (FC),[15],>=1.001
same,fold change (FC),[28],1
same,fold change (FC),[16],1.51
same,IC50,[29],< 0.1 µM
same,fold change (FC),[19],>=7.5
same,fold change (FC),[21],>=7.5
same,fold change (FC),[30],1
same,fold change (FC),[23],>=1.001
same,fold change (FC),[31],1
same,fold change (FC),[32],1
Cn1cnnc1CC1(c2cccc(N3Cc4c(cc(CN5CCC(C)(F)CC5)cc4C(F)(F)F)C3=O)c2)COC1,Kd,[1],< 0.1 µM
same,fold change (FC),[8],1.31
same,fold change (FC),[25],1
same,fold change (FC),[9],>=7.5
same,fold change (FC),[26],<1
same,fold change (FC),[13],>=0.201
same,fold change (FC),[27],1
same,fold change (FC),[15],>=1.001
same,fold change (FC),[28],<1
same,fold change (FC),[16],1.31
same,IC50,[29],< 0.1 µM
same,fold change (FC),[21],>=7.5
same,fold change (FC),[30],1
same,fold change (FC),[31],1
same,fold change (FC),[32],1
C[C@H](Sc1nncn1C)c1ccnc(N)c1,Kd,[1],> 10 µM
same,IC50,[2],≥ 3 µM
CC(Sc1nncn1C)c1cccc(NC(=O)c2ccc3cnccc3c2)c1 (stereo not drawn),IC50,[2],> 10 µM
Cc1nc2cc(C(C)Sc3nncn3C)cc(N)c2o1 (stereo not drawn),Kd,[1],≥ 3 µM
same,IC50,[2],≥ 3 µM
CC(Sc1nncn1C)c1cccc(NC(=O)c2cnc3ccccc3c2)c1 (stereo not drawn),IC50,[2],≥ 3 µM
C[C@H](Sc1nncn1C)c1cccc(NC(=O)c2ccc3ccccc3n2)c1,fold change (FC),[3],1.01
same,fold change (FC),[5],0.051
same,Kd,[1],≥ 1 µM
same,fold change (FC),[8],1.01
same,fold change (FC),[9],1.01
same,fold change (FC),[13],<=0.05
same,fold change (FC),[15],0.601
same,fold change (FC),[16],1.01
same,IC50,[2],≤ 1 µM
same,IC50,[29],≤ 1 µM
same,fold change (FC),[19],1.01
same,fold change (FC),[21],1.01
same,fold change (FC),[23],0.601
COc1ccccc1C(=O)Nc1cccc(C(C)Sc2nncn2C)c1 (stereo not drawn),Kd,[1],> 10 µM
same,IC50,[2],> 10 µM
C[C@@H](Sc1nncn1C)c1cccc(NC(=O)c2ccc3ccccc3n2)c1,fold change (FC),[4],<=1
same,fold change (FC),[6],<=1
same,fold change (FC),[7],1.01
same,Kd,[1],≥ 3 µM
same,fold change (FC),[10],<=1
same,fold change (FC),[11],<=1
same,fold change (FC),[12],<=1
same,fold change (FC),[14],<=1
same,IC50,[2],> 10 µM
same,fold change (FC),[17],<=1
same,fold change (FC),[18],<=1
same,fold change (FC),[20],<=1
same,fold change (FC),[22],<=1
same,fold change (FC),[24],<=1
C[C@H](Cc1nncn1C)c1cccc(NC(=O)c2cc(C(=O)N3CC[C@H](O)C3)cc(C(F)(F)F)n2)c1,fold change (FC),[3],>=1.76
same,fold change (FC),[4],1.01
same,fold change (FC),[5],>=0.201
same,fold change (FC),[6],1.01
same,fold change (FC),[7],1.01
same,Kd,[1],< 0.1 µM
same,fold change (FC),[8],1.31
same,fold change (FC),[9],2.51
same,fold change (FC),[10],2.01
same,fold change (FC),[11],2.01
same,fold change (FC),[12],1.01
same,fold change (FC),[13],>=0.201
same,fold change (FC),[14],1.01
same,fold change (FC),[15],>=1.001
same,fold change (FC),[16],1.51
same,IC50,[29],< 0.1 µM
same,fold change (FC),[17],2.01
same,fold change (FC),[18],2.01
same,fold change (FC),[19],>=7.5
same,fold change (FC),[20],2.01
same,fold change (FC),[21],>=7.5
same,fold change (FC),[22],2.01
same,fold change (FC),[23],>=1.001
same,fold change (FC),[24],1.01
CC(Sc1nncn1C)c1cccc(NC(=O)c2ccc3ncccc3c2)c1 (stereo not drawn),Kd,[1],> 10 µM
same,IC50,[2],> 10 µM
CC(Sc1nncn1C)c1cccc(NC(=O)c2ccc3ccncc3c2)c1 (stereo not drawn),Kd,[1],> 10 µM
same,IC50,[2],> 10 µM
C[C@@H](Cc1nncn1C)c1cccc(N2Cc3c(cccc3C(F)(F)F)C2=O)c1,fold change (FC),[26],<1
same,fold change (FC),[27],<1
same,fold change (FC),[28],<1
same,fold change (FC),[30],<1
same,fold change (FC),[31],<1
CC(Sc1nncn1C)c1cccc(NC(=O)c2cc3ccccc3c(=O)[nH]2)c1 (stereo not drawn),IC50,[2],> 10 µM
CC(Sc1nncn1C)c1cccc(NC(=O)c2ccc3ccccc3n2)c1 (stereo not drawn),fold change (FC),[3],1.01
same,fold change (FC),[5],0.051
same,Kd,[1],≥ 1 µM
same,fold change (FC),[8],<=1
same,fold change (FC),[9],1.01
same,fold change (FC),[13],<=0.05
same,fold change (FC),[15],<=0.6
same,fold change (FC),[16],<=1
same,Kd,[2],≥ 1 µM
same,IC50,[29],≤ 1 µM
same,fold change (FC),[19],2.51
same,fold change (FC),[21],1.01
same,fold change (FC),[23],0.601
CC(Sc1nncn1C)c1cc(CO)cc(NC(=O)c2ccc3ccccc3n2)c1 (stereo not drawn),IC50,[2],> 10 µM
Cc1ccc2ccc(C(=O)Nc3cccc(C(C)Sc4nncn4C)c3)nc2n1 (stereo not drawn),IC50,[2],> 10 µM
CC(Sc1nncn1C)c1cccc(NC(=O)c2ccccn2)c1 (stereo not drawn),Kd,[1],> 10 µM
same,IC50,[2],≥ 3 µM
Cc1ccc2cc(C(=O)Nc3cccc(C(C)Sc4nncn4C)c3)cnc2c1 (stereo not drawn),IC50,[2],> 10 µM
COc1ccc(C(=O)Nc2cccc(C(C)Sc3nncn3C)c2)cc1 (stereo not drawn),Kd,[1],> 10 µM
same,IC50,[2],> 10 µM
CC(Sc1nncn1C)c1cccc(NC(=O)c2ccc3cccnc3c2)c1 (stereo not drawn),IC50,[2],> 10 µM
